In the supplement of paper PMC4862054:

Tests used:
Experiment in all cases: normalised response (% of control), CellTox Green; higher = less cell death (100 = DMSO, 0 = benzethonium chloride kill control)
Conditions in all cases: incubation time: 72 h
[1] = test system: CAL-148
Summary of the method: (§1)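 Each value is the plate-normalised signal at one concentration of the series. Breast cancer cell lines (20 µl suspension) were incubated 72 h in 384-well plates with compound at 5 concentrations in 10-fold steps over a compound-specific 10,000-fold range. CellTox Green and then CellTiter-Glo were read, and each plate was scaled to 0.1 % DMSO (100) and a positive kill control (0).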

[2] = test system: MDA-MB-436
Summary of the method: as §1

[3] = test system: CAL-120
Summary of the method: as §1

[4] = test system: MDA-MB-231
Summary of the method: as §1

[5] = test system: MDA-MB-453
Summary of the method: as §1

[6] = test system: MCF-10A
Summary of the method: as §1

[7] = test system: BT-474
Summary of the method: as §1

[8] = test system: HDQ-P1
Summary of the method: as §1

[9] = test system: MDA-MB-468
Summary of the method: as §1

[10] = test system: DU-4475
Summary of the method: as §1

[11] = test system: CAL-51
Summary of the method: as §1

[12] = test system: HCC1937
Summary of the method: as §1

[13] = test system: Hs578T
Summary of the method: as §1

[14] = test system: HCC1143
Summary of the method: as §1

[15] = test system: BT-549
Summary of the method: as §1

[16] = test system: HCC1599
Summary of the method: as §1

[17] = test system: MFM-223
Summary of the method: as §1

[18] = test system: CAL-85-1
Summary of the method: as §1

Row | SMILES | normalised response [1] | normalised response [2] | normalised response [3] | normalised response [4] | normalised response [5] | normalised response [6] | normalised response [7] | normalised response [8] | normalised response [9] | normalised response [10] | normalised response [11] | normalised response [12] | normalised response [13] | normalised response [14] | normalised response [15] | normalised response [16] | normalised response [17] | normalised response [18]
1 | Clc1ccc(Nc2nnc(Cc3ccncc3)c3ccccc23)cc1 [Vatalanib] (10000 nM) | 53.2% | 107% | 102% | 129% | 105% | 55.9% | 102% | 114% | 86.5% | 107% | 109% | 123% | 78.7% | 125% | 118% | 114% | 97.1% | 76.8%
2 | Cn1c(Nc2ccc(C(F)(F)F)cc2)nc2cc(Oc3ccnc(-c4ncc(C(F)(F)F)[nH]4)c3)ccc21 [RAF265] (1000 nM) | 80.4% | 107% | 100% | 113% | 102% | 75.4% | 98.1% | 109% | 145% | 99.4% | 96.3% | 82% | 118% | 122% | 81.7% | 110% | 21.6% | 55.5%
3 | Oc1nc(-c2ccc(C(F)(F)F)cc2)nc2c1CSCC2 [XAV-939] (1000 nM) | 101% | 102% | 102% | 102% | 102% | 67.7% | 101% | 77.1% | 118% | 101% | 102% | 114% | 88.9% | 96.1% | 106% | 100% | 99.9% | 103%
4 | CCC1(c2ccc(N)cc2)CCC(=O)NC1=O (stereo not given) [Aminoglutethimide] (1000 nM) | 104% | 98.2% | 99.8% | 76.7% | 101% | 109% | 102% | 104% | 177% | 99.2% | 83.5% | 97.3% | 71.8% | 106% | 117% | 96.2% | 97.6% | 105%
5 | CO[C@H]1/C=C\C=C(/C)C(=O)NC2=CC(=O)C(NCCN(C)C)=C(C[C@@H](C)C[C@H](OC)[C@H](O)[C@@H](C)/C=C(\C)[C@@H]1OC(N)=O)C2=O [Alvespimycin] (100 nM) | 48.7% | 89.6% | 95% | 67.9% | 91.4% | 33.3% | 76.6% | 75.2% | 104% | 68.1% | 60.4% | 118% | 101% | 69.1% | 130% | 107% | 89.6% | 71.6%
6 | CN(N=O)C(=O)N[C@@H](C=O)[C@@H](O)[C@H](O)[C@H](O)CO [Streptozocin] (1000 nM) | – | 106% | 106% | 96.8% | 108% | 53.9% | 97.2% | 92.3% | 90.8% | 107% | 95.2% | 99.3% | 99% | 113% | 99.5% | 103% | 98.3% | 110%
7 | CCC1(c2ccc(N)cc2)CCC(=O)NC1=O (stereo not given) [Aminoglutethimide] (10000 nM) | 97% | 91.5% | 99.7% | 112% | 96.9% | 102% | 90% | 107% | 69% | 95.9% | 115% | 110% | 127% | 59.1% | 104% | 101% | 102% | 89.5%
8 | O=P1(NCCCl)OCCCN1CCCl (stereo not given) [Ifosfamide] (1000 nM) | 100% | 58.7% | 99.5% | 96.2% | 107% | 90% | 98.2% | 67.6% | 139% | 95.8% | 95.4% | 70.1% | 89.2% | 107% | 107% | 98.7% | 94.9% | 100%
9 | Clc1ccc(Nc2nnc(Cc3ccncc3)c3ccccc23)cc1 [Vatalanib] (1000 nM) | 98.1% | 102% | 92.8% | 118% | 104% | 84.5% | 97.2% | 105% | 138% | 101% | 109% | 134% | 105% | 64.7% | 137% | 104% | 103% | 104%
10 | CO[C@H]1/C=C\C=C(/C)C(=O)NC2=CC(=O)C(NCCN(C)C)=C(C[C@@H](C)C[C@H](OC)[C@H](O)[C@@H](C)/C=C(\C)[C@@H]1OC(N)=O)C2=O [Alvespimycin] (1000 nM) | 45.8% | 106% | 87.5% | 33% | 82.7% | 23.5% | 61.3% | 80% | 34.9% | 79.2% | 69.6% | 34.5% | -33.1% | -15.9% | 107% | 104% | 86.5% | 33.3%
11 | CN[C@@H]1C[C@H]2O[C@@](C)([C@@H]1OC)n1c3ccccc3c3c4c(c5c6ccccc6n2c5c31)C(=O)N[C@H]4O [UCN-01] (10000 nM) | 40.4% | 83.2% | 18.1% | 1.94% | 78.3% | -57.5% | 24.5% | 43.6% | 180% | 76.1% | 33.5% | 95.6% | -27.6% | 72% | 43.8% | 80.9% | 78.1% | -33.4%
12 | Cn1c(Nc2ccc(C(F)(F)F)cc2)nc2cc(Oc3ccnc(-c4ncc(C(F)(F)F)[nH]4)c3)ccc21 [RAF265] (100 nM) | 107% | 94.9% | 100% | 114% | 105% | 107% | 100% | 113% | 115% | 105% | 100% | 109% | 107% | 96.9% | – | 98.6% | 102% | 86.3%
13 | C[C@@H](Oc1cc(-c2cnn(C3CCNCC3)c2)cnc1N)c1c(Cl)ccc(F)c1Cl [Crizotinib] (1000 nM) | 97.2% | 57.6% | 102% | 115% | 98.3% | 95.9% | 98.9% | 72.7% | 123% | 107% | 83.6% | 87% | 103% | 131% | 131% | 111% | 78.6% | 76.1%
14 | CN[C@@H]1C[C@H]2O[C@@](C)([C@@H]1OC)n1c3ccccc3c3c4c(c5c6ccccc6n2c5c31)C(=O)N[C@H]4O [UCN-01] (1000 nM) | 89.2% | 94.5% | 59.7% | 32.6% | 91.4% | -24.5% | 70.9% | 63.7% | 59.7% | 78.3% | 40.2% | 106% | 47.3% | 53.2% | 78.7% | 79.3% | 67.8% | 29.5%
15 | Cc1ccc(-n2nc(C(C)(C)C)cc2NC(=O)Nc2ccc(OCCN3CCOCC3)c3ccccc23)cc1 [Doramapimod] (1000 nM) | 104% | 87.7% | 96.1% | 102% | 105% | 101% | 97.6% | 89.6% | 122% | 95.2% | 101% | 109% | 82.6% | 104% | 93.2% | 83.8% | 100% | 113%
16 | CC1(C)NC(=O)N(c2ccc([N+](=O)[O-])c(C(F)(F)F)c2)C1=O [Nilutamide] (1000 nM) | 92% | 103% | 101% | 115% | 94% | 115% | 102% | 88.5% | 115% | 103% | 103% | 98% | 100% | 72.8% | 123% | 107% | 95.9% | 103%
17 | Cc1ccc(C(=O)Nc2ccc(CN3CCN(C)CC3)c(C(F)(F)F)c2)cc1C#Cc1cnc2cccnn12 [Ponatinib] (1000 nM) | 60.9% | 95.6% | 59.5% | -32.9% | 103% | 97% | 92.3% | 76.6% | 164% | 93.3% | 57.4% | 15% | 24.4% | 71.3% | 59.4% | 103% | 96.4% | 60.8%
18 | CCC1=C[C@@H]2CN(C1)Cc1c([nH]c3ccccc13)[C@@](C(=O)OC)(c1cc3c(cc1OC)N(C)[C@H]1[C@@](O)(C(=O)OC)[C@H](OC(C)=O)[C@]4(CC)C=CCN5CC[C@]31[C@@H]54)C2 [Vinorelbine] (1000 nM) | 54.8% | 76.9% | 91.7% | 20.9% | 101% | 26.6% | 61.2% | -18.4% | 98.1% | 96.7% | 18.8% | 92.5% | 27.5% | 104% | 63.8% | 79.5% | 55.2% | 68.7%
19 | Oc1nc(-c2ccc(C(F)(F)F)cc2)nc2c1CSCC2 [XAV-939] (10000 nM) | 101% | 95.5% | 93.8% | 101% | 94.1% | 103% | 103% | 71.7% | 115% | 103% | 79.7% | 93.2% | 65.4% | 103% | 104% | 103% | 101% | 105%
